Measurements: US20260217697A1, “COMPOUNDS COMPRISING HETEROARYL RINGS AND COMPOSITIONS AND METHODS THEREOF” (lonGen Therapeutics Co., Ltd., priority 2022, published 2026)

Molecular target: T1, hTRPV3 (Homo sapiens, UniProt Q8NET8)
T1 construct: The commercially available plasmid with the full-length cDNA of hTRPV3 (791 aa) (NM_001258205.2); host or cells: HEK293T
T1 sequence (Q8NET8 1-791 isoform Q8NET8-2): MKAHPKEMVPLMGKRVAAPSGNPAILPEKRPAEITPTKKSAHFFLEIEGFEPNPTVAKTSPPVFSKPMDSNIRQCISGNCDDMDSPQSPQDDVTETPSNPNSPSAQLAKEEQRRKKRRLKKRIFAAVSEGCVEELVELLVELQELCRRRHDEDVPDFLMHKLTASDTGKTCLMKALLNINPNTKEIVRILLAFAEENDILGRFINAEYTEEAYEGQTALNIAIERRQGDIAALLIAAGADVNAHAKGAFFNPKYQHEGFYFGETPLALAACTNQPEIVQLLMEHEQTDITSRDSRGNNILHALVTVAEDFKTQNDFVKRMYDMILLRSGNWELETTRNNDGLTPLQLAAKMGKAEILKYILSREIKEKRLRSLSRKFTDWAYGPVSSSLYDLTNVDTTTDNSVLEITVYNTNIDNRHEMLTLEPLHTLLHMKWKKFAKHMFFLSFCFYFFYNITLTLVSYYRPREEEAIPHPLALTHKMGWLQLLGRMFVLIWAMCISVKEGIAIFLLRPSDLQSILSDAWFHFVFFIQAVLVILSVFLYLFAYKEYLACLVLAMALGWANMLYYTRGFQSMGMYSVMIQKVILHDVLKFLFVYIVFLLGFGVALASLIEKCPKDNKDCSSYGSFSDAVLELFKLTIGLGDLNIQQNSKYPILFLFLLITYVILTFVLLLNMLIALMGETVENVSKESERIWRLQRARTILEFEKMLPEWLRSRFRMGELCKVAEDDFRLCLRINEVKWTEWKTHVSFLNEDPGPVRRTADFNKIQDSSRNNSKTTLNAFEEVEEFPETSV
Assay: Whole-cell patch-clamp recording of hTRPV3 current in transfected HEK293T cells (2-APB induced)
Format: cell-based
Conditions: current induced by 300 μM 2-APB, compounds tested up to 10 μM, room temperature
In short: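 HEK293T cells transiently expressing full-length hTRPV3, recorded by whole-cell patch clamp 18 h post-transfection at room temperature, with 130 mM NaCl/0.3 mM EDTA/3 mM HEPES pH 7.4 on both sides. Holding potential 0 mV; 400-ms steps to +80 and −80 mV every 2 s. Block of 2-APB-evoked current, tested up to 10 μM, fitted to Hill equation for IC50.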

| SMILES | IC50 |
| --- | --- |
| COc1ncnc(OC)c1C(=O)Nc1nc2c(s1)-c1ccc(C(F)(F)F)cc1OC21CCS(=O)(=O)CC1 [compound 141, N-(1′,1′-dioxido-7-(trifluoromethyl)-2′,3′,5′,6′-tetrahydrospiro[chromeno[3,4-d]thiazole-4,4′-thiopyran]-2-yl)-4,6-dimethoxypyrimidine-5-carboxamide] | 1000 to 10000 nM |
| CCC1(CC)Oc2cc(C(F)(F)F)ccc2-c2nc(NC(=O)c3c(OC)cccc3OC)sc21 [compound 142, N-(4,4-diethyl-7-(trifluoromethyl)-4H-chromeno[4,3-d]thiazol-2-yl)-2,6-dimethoxybenzamide] | ≥ 10000 nM |
| CCC1(CC)Oc2cc(C(F)(F)F)ccc2-c2nc(N3CN(C)c4ncnc(OC)c4C3=O)sc21 [compound 143, 3-(4,4-diethyl-7-(trifluoromethyl)-4H-chromeno[4,3-d]thiazol-2-yl)-5-methoxy-1-methyl-2,3-dihydropyrimido[4,5-d]pyrimidin-4 (1H)-one] | ≥ 10000 nM |
| COc1ncnc(O)c1C(=O)Nc1nc2c(s1)C1(COC1)Oc1cc(C(C)C)ccc1-2 [compound 144, 4-hydroxy-N-(7-isopropylspiro[chromeno[4,3-d]thiazole-4,3′-oxetan]-2-yl)-6-methoxypyrimidine-5-carboxamide] | ≥ 10000 nM |
| COc1ncnc(OC)c1C(=O)Nc1nc2c(s1)C1(CN(C(C)C)C1)Oc1cc(C(C)C)ccc1-2 [compound 145, N-(1,7′-diisopropylspiro[azetidine-3,4′-chromeno[4,3-d]thiazol]-2′-yl)-4,6-dimethoxypyrimidine-5-carboxamide] | 100 to 1000 nM |
| COc1ncnc(OC)c1C(=O)Nc1nc2c(s1)C1(CN(C(C)C)C1)Oc1cc(Br)ccc1-2 [compound 146, N-(7′-bromo-1-isopropylspiro[azetidine-3,4′-chromeno[4,3-d]thiazol]-2′-yl)-4,6-dimethoxypyrimidine-5-carboxamide] | < 100 nM |
| COc1ncnc(OCCN(C)C)c1C(=O)Nc1nc2c(s1)C1(COC1)Oc1cc(C(C)C)ccc1-2 [compound 147, 4-(2-(dimethylamino)ethoxy)-N-(7-isopropylspiro[chromeno[4,3-d]thiazole-4,3′-oxetan]-2-yl)-6-methoxypyrimidine-5-carboxamide] | 1000 to 10000 nM |
| COc1ncnc(OC)c1C(=O)Nc1nc2c(s1)C1(CN(C(C)C)C1)Oc1cc(C#N)ccc1-2 [compound 148, N-(7′-cyano-1-isopropylspiro[azetidine-3,4′-chromeno[4,3-d]thiazol]-2′-yl)-4,6-dimethoxypyrimidine-5-carboxamide] | 100 to 1000 nM |
| COc1ncnc(OC)c1C(=O)Nc1nc2c(s1)C1(CN(C3CC3)C1)Oc1cc(C(F)(F)F)ccc1-2 [compound 149, N-(1-cyclopropyl-7′-(trifluoromethyl)spiro[azetidine-3,4′-chromeno[4,3-d]thiazol]-2′-yl)-4,6-dimethoxypyrimidine-5-carboxamide] | < 100 nM |
| COc1ncnc(OC)c1C(=O)Nc1nc2c(s1)C1(CN(CC(C)C)C1)Oc1cc(C(F)(F)F)ccc1-2 [compound 150, N-(1-isobutyl-7′-(trifluoromethyl)spiro[azetidine-3,4′-chromeno[4,3-d]thiazol]-2′-yl)-4,6-dimethoxypyrimidine-5-carboxamide] | < 100 nM |
| COc1ncnc(OCCN(C)C)c1C(=O)Nc1nc2c(s1)C1(COC1)Oc1cc(C(F)(F)F)ccc1-2 [compound 151, 4-(2-(dimethylamino)ethoxy)-6-methoxy-N-(7-(trifluoromethyl)spiro[chromeno[4,3-d]thiazole-4,3′-oxetan]-2-yl)pyrimidine-5-carboxamide] | 1000 to 10000 nM |
| COc1ncnc(OC)c1C(=O)Nc1nc2c(s1)C1(CCN(C(C)C)CC1)Oc1cc(C(F)(F)F)ccc1-2 [compound 152, N-(1′-isopropyl-7-(trifluoromethyl)spiro[chromeno[4,3-d]thiazole-4,4′-piperidin]-2-yl)-4,6-dimethoxypyrimidine-5-carboxamide] | 100 to 1000 nM |
| COc1ncnc(OC)c1C(=O)Nc1nc2c(s1)C1(CN(C3(OC)CC3)C1)Oc1cc(C(F)(F)F)ccc1-2 [compound 153, 4,6-dimethoxy-N-(1-(1-methoxycyclopropyl)-7′-(trifluoromethyl)spiro[azetidine-3,4′-chromeno[4,3-d]thiazol]-2′-yl)pyrimidine-5-carboxamide] | < 100 nM |
| COc1ncnc(OC)c1C(=O)Nc1nc2c(s1)C1(CCN(C3CC3)CC1)Oc1cc(C(F)(F)F)ccc1-2 [compound 154] | 100 to 1000 nM |
| COc1ncnc(OC)c1C(=O)Nc1nc2c(s1)C1(CCN(CC(C)C)CC1)Oc1cc(C(F)(F)F)ccc1-2 [compound 155, N-(1′-isobutyl-7-(trifluoromethyl)spiro[chromeno[4,3-d]thiazole-4,4′-piperidin]-2-yl)-4,6-dimethoxypyrimidine-5-carboxamide] | < 100 nM |
| COc1ncnc(OC)c1C(=O)Nc1nc2c(s1)C1(CN(C(=O)OC(C)(C)C)C1)Oc1cnccc1-2 [compound 156, tert-butyl 2′-(4,6-dimethoxypyrimidine-5-carboxamido)spiro[azetidine-3,4′-thiazolo[4′,5′: 4,5]pyrano[2,3-c]pyridine]-1-carboxylate] | 1000 to 10000 nM |
| COCCN1CC2(C1)Oc1cc(C(F)(F)F)ccc1-c1nc(NC(=O)c3c(OC)ncnc3OC)sc12 [compound 157, 4,6-dimethoxy-N-(1-(2-methoxyethyl)-7′-(trifluoromethyl)spiro[azetidine-3,4′-chromeno[4,3-d]thiazol]-2′-yl)pyrimidine-5-carboxamide] | < 100 nM |
| CCC1(CC)Oc2cc(C(F)(F)F)ccc2-c2nc(NC(=O)c3c(OC)nc(OC)nc3OC)sc21 [compound 158, N-(4,4-diethyl-7-(trifluoromethyl)-4H-chromeno[4,3-d]thiazol-2-yl)-2,4,6-trimethoxypyrimidine-5-carboxamide] | ≥ 10000 nM |
| COc1ncnc(OC)c1C(=O)Nc1nc2c(s1)C1(CN(C3CCC3)C1)Oc1cc(C(F)(F)F)ccc1-2 [compound 159, N-(1-cyclobutyl-7′-(trifluoromethyl)spiro[azetidine-3,4′-chromeno[4,3-d]thiazol]-2′-yl)-4,6-dimethoxypyrimidine-5-carboxamide] | < 100 nM |
| COc1ncnc(OC)c1C(=O)Nc1nc2c(s1)C1(CN(C3COC3)C1)Oc1cc(C(F)(F)F)ccc1-2 [compound 160, 4,6-dimethoxy-N-(1-(oxetan-3-yl)-7′-(trifluoromethyl)spiro[azetidine-3,4′-chromeno[4,3-d]thiazol]-2′-yl)pyrimidine-5-carboxamide] | 100 to 1000 nM |
| CCC1(CC)Oc2cc(C(F)(F)F)ccc2-c2nc(NC(=O)c3c(OC)nn(C)c3Br)sc21 [compound 161, 5-bromo-N-(4,4-diethyl-7-(trifluoromethyl)-4H-chromeno[4,3-d]thiazol-2-yl)-3-methoxy-1-methyl-1H-pyrazole-4-carboxamide] | ≥ 10000 nM |
| CCC1(CC)Oc2cc(C(F)(F)F)ccc2-c2nc(NC(=O)c3c(OC)nc(C)nc3OC)sc21 [compound 162, N-(4,4-diethyl-7-(trifluoromethyl)-4H-chromeno[4,3-d]thiazol-2-yl)-4,6-dimethoxy-2-methylpyrimidine-5-carboxamide] | 1000 to 10000 nM |
| COC(=O)CN1CC2(C1)Oc1cc(C(F)(F)F)ccc1-c1nc(NC(=O)c3c(OC)ncnc3OC)sc12 [compound 163] | < 100 nM |
